The target of one series is T1, PEPT1 (Homo sapiens, UniProt P46059).
T1 construct: The complete open reading frame was cloned into a Xenopus oocyte expression plasmid; expressed in transfected cells; host or cells: Xenopus oocytes injected with cRNA
T1 sequence (P46059 1-708): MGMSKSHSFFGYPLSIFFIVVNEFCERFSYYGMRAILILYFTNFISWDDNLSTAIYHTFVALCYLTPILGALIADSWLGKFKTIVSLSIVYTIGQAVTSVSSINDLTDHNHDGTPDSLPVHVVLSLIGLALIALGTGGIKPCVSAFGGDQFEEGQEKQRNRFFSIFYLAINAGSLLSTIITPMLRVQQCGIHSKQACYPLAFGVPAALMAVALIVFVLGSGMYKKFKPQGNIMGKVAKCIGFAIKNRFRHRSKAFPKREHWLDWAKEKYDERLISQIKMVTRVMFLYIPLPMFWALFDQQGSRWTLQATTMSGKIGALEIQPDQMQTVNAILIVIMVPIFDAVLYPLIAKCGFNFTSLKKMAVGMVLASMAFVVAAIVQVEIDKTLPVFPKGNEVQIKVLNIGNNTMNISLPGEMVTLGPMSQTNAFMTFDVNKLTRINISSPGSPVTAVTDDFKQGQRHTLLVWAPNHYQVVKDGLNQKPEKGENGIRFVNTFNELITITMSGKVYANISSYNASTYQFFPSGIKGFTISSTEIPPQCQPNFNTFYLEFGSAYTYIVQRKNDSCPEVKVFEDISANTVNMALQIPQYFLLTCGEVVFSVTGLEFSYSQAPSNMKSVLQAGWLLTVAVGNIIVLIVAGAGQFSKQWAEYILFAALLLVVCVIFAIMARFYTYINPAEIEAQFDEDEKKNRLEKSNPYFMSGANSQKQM
Description: Transport currents (Vmax vs Gly-Sar) in Xenopus oocytes transfected with PEPT1, two-electrode voltage-clamp. In kind it is cell-based. The conditions noted are these: for Substrate quality for PEPT1 relative to Gly-Sar (in words): cells transfected with PEPT1; for PEPT1 (% Gly-Sar) drug only (Vmax) / PEPT1 (% Gly-Sar) +XP10973 (Vmax): oocytes transfected with PEPT1; for PEPT1 (% Gly-Sar) +XP10973 (Vmax): in the presence of inhibitor XP10973. As for the experimental part: (§1) The complete open reading frame was cloned into a Xenopus oocyte expression plasmid, linearized, and cRNA was generated by run-off transcription using the T7 polymerase. Xenopus oocytes were prepared and maintained as previously described
(Collins, et al., 1997) and injected with 10-30 ng RNA. Transport currents were measured 2-4 days after injection using two-electrode voltage-clamp (Axon Instruments). All experiments were performed using a modified oocyte Ringers solution (90 mM NaCl, 2 mM KCl, 1.8 mM CaCl2, 1 mM MgCl2, and 10 mM NaHEPES, pH 6.8). The membrane potential of oocytes was held at −60 mV and current traces acquired using PowerLab software. Responses to compounds were measured in the presence and absence of a specific non-transported inhibitor (XP10973) for PEPT1 and PEPT2. Data are expressed as the currents that are blocked by XP10973
(In general: In two-electrode clamp one electrode senses voltage and the other passes current.)

Another series addresses T2, PEPT2 (Homo sapiens, UniProt Q16348, S640G).
T2 construct: The complete open reading frame was cloned into a Xenopus oocyte expression plasmid; expressed in transfected cells; host or cells: Xenopus oocytes injected with cRNA
T2 sequence (Q16348 1-729 S640G): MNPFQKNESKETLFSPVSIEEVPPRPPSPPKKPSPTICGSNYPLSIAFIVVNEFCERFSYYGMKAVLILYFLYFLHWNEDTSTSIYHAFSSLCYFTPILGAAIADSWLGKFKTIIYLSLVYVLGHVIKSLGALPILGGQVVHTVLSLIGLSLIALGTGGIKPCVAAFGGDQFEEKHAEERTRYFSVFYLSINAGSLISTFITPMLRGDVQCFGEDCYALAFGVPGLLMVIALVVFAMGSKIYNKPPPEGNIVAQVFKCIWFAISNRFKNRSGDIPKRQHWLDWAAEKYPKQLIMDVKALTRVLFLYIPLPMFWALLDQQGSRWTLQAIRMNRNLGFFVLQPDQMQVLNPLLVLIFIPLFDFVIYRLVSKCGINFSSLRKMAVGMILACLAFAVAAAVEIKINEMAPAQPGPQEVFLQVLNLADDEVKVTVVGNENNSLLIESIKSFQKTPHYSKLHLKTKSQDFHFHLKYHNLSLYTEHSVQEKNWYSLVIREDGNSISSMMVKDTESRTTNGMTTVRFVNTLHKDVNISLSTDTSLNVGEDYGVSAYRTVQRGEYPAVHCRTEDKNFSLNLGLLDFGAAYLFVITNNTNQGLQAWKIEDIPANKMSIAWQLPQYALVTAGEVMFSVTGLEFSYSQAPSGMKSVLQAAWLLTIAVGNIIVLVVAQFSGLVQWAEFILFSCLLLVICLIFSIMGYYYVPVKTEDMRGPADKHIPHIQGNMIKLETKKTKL
The experiment in a line: Transport currents (Vmax vs Gly-Sar) in Xenopus oocytes transfected with PEPT2, two-electrode voltage-clamp. The conditions noted are these: for Substrate preference PEPT2 versus PEPT1 (in words): comparison of PEPT2 and PEPT1 transfected oocytes. In kind it is cell-based. As for the experimental part:
as §1
Transport currents were measured 2-4 days after injection using two-electrode voltage-clamp (Axon Instruments). All experiments were performed using a modified oocyte Ringers solution (90 mM NaCl, 2 mM KCl, 1.8 mM CaCl2, 1 mM MgCl2, and 10 mM NaHEPES, pH 6.8). The membrane potential of oocytes was held at −60 mV and current traces acquired using PowerLab software. Responses to compounds were measured in the presence and absence of a specific non-transported inhibitor (XP10973) for PEPT1 and PEPT2. Data are expressed as the currents that are blocked by XP10973

The test system of a further series is Caco-2 cells. In kind it is in vitro ADME. As for the experimental part: Caco-2 cells were plated on Millipore transwell filters and allowed to differentiate for 18-22 days. Integrity of the monolayers was confirmed by lack of radiolabeled inulin transport across the monolayer. Compounds were added to the apical chamber, and the appearance of compounds in the basolateral chamber were measured at various timepoints by scintillation counting or LC/MS/MS.
FIGS. 1 and 2 show uptake of cephradine and cefadroxil by Caco-2 cells in the presence and absence of XP10973 inhibitor. […] However, as described above, cephradine and cefadroxil are poor substrates for PEPT1 and good substrates for PEPT2.

[1] abbreviates: oocytes transfected with PEPT2, drug only.
Setting [2] is: oocytes transfected with PEPT2, in the presence of inhibitor XP10973.

Where two headings read alike, the source gives them in different places. Non-standard residues stand in square brackets, D forms with d. Residues, ends and D or L forms follow the SMILES beside them. *: point of attachment. Dansyl = CN(C)c1cccc2c(S(=O)(=O)*)cccc12; Sar = CNCC(=O)O

Regarding `CC1(C)S[C@@H]2[C@H](NC(=O)[C@H](N)c3ccc(O)cc3)C(=O)N2[C@H]1C(=O)O` [Amoxacillin, amoxacillin], at PEPT1, the “Substrate quality for PEPT1 relative to Gly-Sar (in words)” value is on record as “relatively poor susbstrates”, the “PEPT1 (% Gly-Sar) drug only (Vmax)” value is listed as 1.3 % Gly-Sar and the “PEPT1 (% Gly-Sar) +XP10973 (Vmax)” value worked out at 1.1 % Gly-Sar. Further, at PEPT2, the “PEPT2 (% Gly-Sar) +XP10973 (Vmax)” value came to 15 % Gly-Sar, the “PEPT2 (% Gly-Sar) drug only (Vmax)” value was 85 % Gly-Sar and the “Substrate quality for PEPT2 relative to Gly-Sar (in words)” value was “relatively good substrates”.
As to `N[C@@H](C(=O)N[C@@H]1C(=O)N2C(C(=O)O)=C(Cl)CS[C@H]12)c1ccccc1` [Cefaclor, cefaclor], at PEPT1, the “Substrate quality for PEPT1 relative to Gly-Sar (in words)” value is “relatively poor susbstrates”, the “PEPT1 (% Gly-Sar) drug only (Vmax)” value was 4 % Gly-Sar and the “PEPT1 (% Gly-Sar) +XP10973 (Vmax)” value came to 1.6 % Gly-Sar. On PEPT2 (cells transfected with PEPT2), the “Substrate quality for PEPT2 relative to Gly-Sar (in words)” value is recorded as “relatively good substrates”. For the same compound, at PEPT2, the “Substrate preference PEPT2 versus PEPT1 (in words)” value is “better substrates for PEPT2 than they are for PEPT1”. Moreover, the “PEPT2 (% Gly-Sar) drug only (Vmax)” value on PEPT2 (setting [1]) was 148 % Gly-Sar. Further, the “PEPT2 (% Gly-Sar) +XP10973 (Vmax)” value at PEPT2 (setting [2]) is given as 22 % Gly-Sar.
Consider `CC1=C(C(=O)O)N2C(=O)[C@@H](NC(=O)[C@H](N)c3ccc(O)cc3)[C@H]2SC1` [Cephadroxil, cefadroxil], for which, in the series with Caco-2 cells, the “Uptake by Caco-2 cells (in words)” value is given as “taken up”. Besides, at PEPT1, the “Substrate quality for PEPT1 relative to Gly-Sar (in words)” value was “relatively poor susbstrates”, the “PEPT1 (% Gly-Sar) drug only (Vmax)” value was 18 % Gly-Sar and the “PEPT1 (% Gly-Sar) +XP10973 (Vmax)” value is recorded as 2.1 % Gly-Sar. Further, the “Substrate quality for PEPT2 relative to Gly-Sar (in words)” value at PEPT2 (cells transfected with PEPT2) is given as “relatively good substrates”. The “Substrate preference PEPT2 versus PEPT1 (in words)” value at PEPT2 is on record as “better substrates for PEPT2 than they are for PEPT1”. Besides, the “PEPT2 (% Gly-Sar) drug only (Vmax)” value at PEPT2 (setting [1]) was determined as 96 % Gly-Sar. Further, the “PEPT2 (% Gly-Sar) +XP10973 (Vmax)” value at PEPT2 (setting [2]) came to 27 % Gly-Sar.
`CC1=C(C(=O)O)N2C(=O)[C@@H](NC(=O)[C@H](N)C3=CCC=CC3)[C@H]2SC1` [Cephradine, cephradine]: in the series with Caco-2 cells, the “Uptake by Caco-2 cells (in words)” value was “taken up”. Also, on PEPT1, the “Substrate quality for PEPT1 relative to Gly-Sar (in words)” value is “relatively poor susbstrates”, the “PEPT1 (% Gly-Sar) drug only (Vmax)” value worked out at 3.5 % Gly-Sar and the “PEPT1 (% Gly-Sar) +XP10973 (Vmax)” value is 1.9 % Gly-Sar. Further, the “Substrate quality for PEPT2 relative to Gly-Sar (in words)” value at PEPT2 (cells transfected with PEPT2) is listed as “relatively good substrates”. The “Substrate preference PEPT2 versus PEPT1 (in words)” value on PEPT2 is reported as “better substrates for PEPT2 than they are for PEPT1”. At PEPT2 (setting [1]), the “PEPT2 (% Gly-Sar) drug only (Vmax)” value was determined as 159 % Gly-Sar. For the same compound, on PEPT2 (setting [2]), the “PEPT2 (% Gly-Sar) +XP10973 (Vmax)” value was 37 % Gly-Sar.
For the compound `CN(CC(=O)O)C(=O)CN` [Gly-Sar] (H-Gly-[Sar]-OH), on PEPT1, the “PEPT1 (% Gly-Sar) drug only (Vmax)” value is listed as 100 % Gly-Sar and the “PEPT1 (% Gly-Sar) +XP10973 (Vmax)” value came to 16 % Gly-Sar. Moreover, the “PEPT2 (% Gly-Sar) drug only (Vmax)” value on PEPT2 (setting [1]) was determined as 100 % Gly-Sar. Besides, the “PEPT2 (% Gly-Sar) +XP10973 (Vmax)” value at PEPT2 (setting [2]) was determined as 12 % Gly-Sar.
In the case of `CC(C)C[C@H](NC(=O)[C@@H](N)CCCCNS(=O)(=O)c1cccc2c(N(C)C)cccc12)C(=O)O` [XP10973] (H-Lys(Dansyl)-Leu-OH), on PEPT1, the “Inhibition of PEPT1 transport (in words)” value is “specific inhibitor”. Also, the “Inhibition of PEPT2 transport (in words)” value at PEPT2 is “specific inhibitor”.
